Data taken from patent US20260132127A1, “NOVEL SPIRO COMPOUND” (MITSUBISHI TANABE PHARMA CORPORATION, priority 2021, published 2026).

The compounds below were run against T1, human TRH-DE (Homo sapiens, UniProt Q9UKU6) (assay: TRH-DE inhibition test (RapidFire MS measurement of product Cyclo (His-Pro))). Details: membrane fraction of Expi 293 cells expressing human TRH-DE; 10 μM TRH substrate; room temperature, 2 hours; 16-point concentration test.
T1 construct: expressed in transfected cells; host or cells: Expi 293 cells (transient expression), membrane fraction
T1 sequence (Q9UKU6 1-1069): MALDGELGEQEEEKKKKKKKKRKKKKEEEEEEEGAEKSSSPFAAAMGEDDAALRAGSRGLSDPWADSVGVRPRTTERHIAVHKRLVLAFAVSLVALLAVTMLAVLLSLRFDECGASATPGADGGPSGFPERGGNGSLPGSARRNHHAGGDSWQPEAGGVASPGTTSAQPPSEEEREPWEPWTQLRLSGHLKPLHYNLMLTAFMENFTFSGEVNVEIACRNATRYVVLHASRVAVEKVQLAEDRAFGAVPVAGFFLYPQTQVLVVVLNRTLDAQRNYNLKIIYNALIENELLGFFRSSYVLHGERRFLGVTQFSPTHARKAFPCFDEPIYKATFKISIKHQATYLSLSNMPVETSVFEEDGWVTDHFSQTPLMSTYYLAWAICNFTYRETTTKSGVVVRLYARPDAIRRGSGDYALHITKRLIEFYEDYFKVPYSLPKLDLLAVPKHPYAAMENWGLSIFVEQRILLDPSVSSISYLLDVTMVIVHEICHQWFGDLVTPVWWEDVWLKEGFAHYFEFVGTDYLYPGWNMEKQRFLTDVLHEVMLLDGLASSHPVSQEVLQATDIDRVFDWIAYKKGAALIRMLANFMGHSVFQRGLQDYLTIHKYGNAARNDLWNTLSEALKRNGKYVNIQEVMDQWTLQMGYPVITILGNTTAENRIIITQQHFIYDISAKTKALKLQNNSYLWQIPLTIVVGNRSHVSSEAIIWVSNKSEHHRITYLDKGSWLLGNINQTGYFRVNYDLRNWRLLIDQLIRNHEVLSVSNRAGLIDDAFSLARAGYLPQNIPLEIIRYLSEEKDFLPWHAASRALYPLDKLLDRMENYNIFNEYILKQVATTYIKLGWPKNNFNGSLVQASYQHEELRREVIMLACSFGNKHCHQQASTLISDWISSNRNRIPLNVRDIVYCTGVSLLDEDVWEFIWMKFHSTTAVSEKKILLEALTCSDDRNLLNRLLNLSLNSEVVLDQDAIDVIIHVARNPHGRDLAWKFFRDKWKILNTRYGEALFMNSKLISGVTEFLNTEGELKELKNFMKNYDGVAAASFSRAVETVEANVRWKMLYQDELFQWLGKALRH
Type: biochemical
In short: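 Inhibition derived from product/internal-standard ratios of Cyclo(His-Pro), quantified by RapidFire triple-quadrupole MS after acetonitrile:methanol quench, with IC50 fitted over 16 concentrations. Enzyme source: membranes of Expi 293 cells transiently expressing human TRH-DE, 4 μg/ml, pH 7.4 phosphate buffer. Incubation with 10 μM substrate ran 2 h at room temperature.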
An IC50 of 14 nM was found for C[C@@H]1COc2nc(O[C@H]3CCOC3)ncc2C(=O)N1C1CC2(C1)CN(S(=O)(=O)c1ccccc1F)C2 [Example 377] in this work. An IC50 of 3 nM was found for C[C@@H]1COc2nc(N(C)C)ncc2C(=O)N1C1CC2(C1)CN(S(=O)(=O)c1ccccc1F)C2 [Example 380] in this work. An IC50 of 2 nM was found for C[C@@H]1COc2nc(N3CCCC3)ncc2C(=O)N1C1CC2(C1)CN(S(=O)(=O)c1ccccc1F)C2 [Example 381] in this work. An IC50 of 4 nM was found for C[C@@H]1COc2nc(N3CCCCC3)ncc2C(=O)N1C1CC2(C1)CN(S(=O)(=O)c1ccccc1F)C2 [Example 382] in this work. An IC50 of 11 nM was found for C[C@@H]1COc2nc(N3CCOCC3)ncc2C(=O)N1C1CC2(C1)CN(S(=O)(=O)c1ccccc1F)C2 [Example 383] in this work. An IC50 of 5 nM was found for C[C@@H]1COc2nc(N3CCCOCC3)ncc2C(=O)N1C1CC2(C1)CN(S(=O)(=O)c1ccccc1F)C2 [Example 384] in this work. An IC50 of 4 nM was found for COC1CCN(c2ncc3c(n2)OC[C@@H](C)N(C2CC4(C2)CN(S(=O)(=O)c2ccccc2F)C4)C3=O)CC1 [Example 387] in this work. An IC50 of 4 nM was found for C[C@@H]1COc2nc(N3C[C@H]4COC[C@H]4C3)ncc2C(=O)N1C1CC2(C1)CN(S(=O)(=O)c1ccccc1F)C2 [Example 388] in this work. An IC50 of 12 nM was found for C[C@@H]1COc2nc(N3[C@@H]4CC[C@H]3COC4)ncc2C(=O)N1C1CC2(C1)CN(S(=O)(=O)c1ccccc1F)C2 [Example 389] in this work. An IC50 of 11 nM was found for C[C@@H]1COc2nc(N3[C@@H]4CCC[C@H]3COC4)ncc2C(=O)N1C1CC2(C1)CN(S(=O)(=O)c1ccccc1F)C2 [Example 390] in this work. An IC50 of 4 nM was found for C[C@@H]1COc2nc(N3CCOC(F)(F)C3)ncc2C(=O)N1C1CC2(C1)CN(S(=O)(=O)c1ccccc1F)C2 [Example 391] in this work. An IC50 of 3 nM was found for C[C@@H]1COc2nc(N3[C@@H]4COC[C@H]3C4)ncc2C(=O)N1C1CC2(C1)CN(S(=O)(=O)c1ccccc1F)C2 [Example 392] in this work. An IC50 of 3 nM was found for CO[C@H]1CCN(c2ncc3c(n2)OC[C@@H](C)N(C2CC4(C2)CN(S(=O)(=O)c2ccccc2F)C4)C3=O)C1 [Example 393] in this work. An IC50 of 4 nM was found for CO[C@@H]1CCN(c2ncc3c(n2)OC[C@@H](C)N(C2CC4(C2)CN(S(=O)(=O)c2ccccc2F)C4)C3=O)C1 [Example 394] in this work. An IC50 of 3 nM was found for C[C@@H]1COc2nc(N3CCC3)ncc2C(=O)N1C1CC2(C1)CN(S(=O)(=O)c1ccccc1F)C2 [Example 395] in this work. An IC50 of 5 nM was found for C[C@@H]1COc2nc(N3C[C@H]4C[C@@H]3CO4)ncc2C(=O)N1C1CC2(C1)CN(S(=O)(=O)c1ccccc1F)C2 [Example 396] in this work. An IC50 of 7 nM was found for C[C@@H]1COc2nc(N3C[C@@H]4C[C@H]3CO4)ncc2C(=O)N1C1CC2(C1)CN(S(=O)(=O)c1ccccc1F)C2 [Example 397] in this work. An IC50 of 2 nM was found for C[C@@H]1COc2nc(N3C[C@H]4C[C@@H](C3)O4)ncc2C(=O)N1C1CC2(C1)CN(S(=O)(=O)c1ccccc1F)C2 [Example 398] in this work. An IC50 of 5 nM was found for C[C@@H]1COc2nc(N3CC(F)C3)ncc2C(=O)N1C1CC2(C1)CN(S(=O)(=O)c1ccccc1F)C2 [Example 399] in this work. An IC50 of 2 nM was found for C[C@@H]1COc2nc(N3CC[C@H](C#N)C3)ncc2C(=O)N1C1CC2(C1)CN(S(=O)(=O)c1ccccc1F)C2 [Example 401] in this work. An IC50 of 3 nM was found for C[C@@H]1COc2nc(N3CC[C@@H](C#N)C3)ncc2C(=O)N1C1CC2(C1)CN(S(=O)(=O)c1ccccc1F)C2 [Example 402] in this work. An IC50 of 3 nM was found for C[C@@H]1COc2nc(N3C[C@H]4C[C@@H]3C4)ncc2C(=O)N1C1CC2(C1)CN(S(=O)(=O)c1ccccc1F)C2 [Example 403] in this work. An IC50 of 4 nM was found for C[C@@H]1COc2nc(N3CC(C(F)(F)F)C3)ncc2C(=O)N1C1CC2(C1)CN(S(=O)(=O)c1ccccc1F)C2 [Example 404] in this work. An IC50 of 5 nM was found for C[C@@H]1COc2nc(N3CC4(COC4)C3)ncc2C(=O)N1C1CC2(C1)CN(S(=O)(=O)c1ccccc1F)C2 [Example 407] in this work. An IC50 of 4 nM was found for C[C@@H]1COc2nc(N3CC4(CCOC4)C3)ncc2C(=O)N1C1CC2(C1)CN(S(=O)(=O)c1ccccc1F)C2 [Example 408] in this work. An IC50 of 4 nM was found for C[C@@H]1COc2nc(NC3CC3)ncc2C(=O)N1C1CC2(C1)CN(S(=O)(=O)c1ccccc1F)C2 [Example 409] in this work. An IC50 of 5 nM was found for CC(C)Nc1ncc2c(n1)OC[C@@H](C)N(C1CC3(C1)CN(S(=O)(=O)c1ccccc1F)C3)C2=O [Example 410] in this work. An IC50 of 8 nM was found for C[C@@H]1COc2nc(N3CC(C#N)C3)ncc2C(=O)N1C1CC2(C1)CN(S(=O)(=O)c1ccccc1F)C2 [Example 411] in this work. An IC50 of 16 nM was found for C[C@@H]1COc2nc(N3C[C@H]4CC[C@@H](C3)O4)ncc2C(=O)N1C1CC2(C1)CN(S(=O)(=O)c1ccccc1F)C2 [Example 412] in this work. An IC50 of 183 nM was found for Cc1ccsc1S(=O)(=O)N1CC2(CC(N3C(=O)c4cccnc4OCC3C)C2)C1 (stereo not drawn) [Example 413] in this work. An IC50 of 618 nM was found for CCCN(C(=O)c1cccnc1OC)C1CC2(C1)CN(S(=O)(=O)c1cccc(C)c1)C2 [Example 414, 2-methoxy-N-[2-(3-methylphenyl)sulfonyl-2-azaspiro[3.3]heptan-6-yl]-N-propylpyridine-3-carboxamide] in this work. An IC50 of 847 nM was found for CCCN(C(=O)c1cccnc1OC)C1CC2(C1)CN(S(=O)(=O)c1cccs1)C2 [Example 415] in this work. An IC50 of 676 nM was found for CCCN(C(=O)c1cccnc1OC)C1CC2(C1)CN(S(=O)(=O)c1ccccc1F)C2 [Example 416] in this work. An IC50 of 690 nM was found for CCCN(C(=O)c1cccnc1OC)C1CC2(C1)CN(S(=O)(=O)c1sccc1C)C2 [Example 417] in this work. An IC50 of 75 nM was found for CCCN(C(=O)c1cccnc1OC)C1CC2(C1)CN(S(=O)(=O)c1cc(C)ccc1F)C2 [Example 418] in this work. An IC50 of 685 nM was found for CCCN(C(=O)c1cccnc1OC)C1CC2(C1)CN(S(=O)(=O)c1cccc(-c3ccccc3)c1)C2 [Example 419] in this work. An IC50 of 701 nM was found for CCCN(C(=O)c1cccnc1OC)C1CC2(C1)CN(S(=O)(=O)c1cccc(C)c1F)C2 [Example 420] in this work. An IC50 of 480 nM was found for CCCN(C(=O)c1cccnc1OC)C1CC2(C1)CN(S(=O)(=O)c1cc(OC)ccc1F)C2 [Example 421] in this work. An IC50 of 218 nM was found for COCC1C(c2ccccc2)=CC(=O)N1C1CC2(C1)CN(S(=O)(=O)c1ccccc1F)C2 (stereo not drawn) [Example 422] in this work. An IC50 of 974 nM was found for CCCN(C(=O)c1cccnc1OC)C1CC2(C1)CN(S(=O)(=O)c1ccccc1)C2 [Example 423, N-[2-(benzenesulfonyl)-2-azaspiro[3.3]heptan-6-yl]-2-methoxy-N-propylpyridine-3-carboxamide] in this work. An IC50 of 795 nM was found for CCCN(C(=O)c1cccnc1OCC)C1CC2(C1)CN(S(=O)(=O)c1cccc(C)c1)C2 [Example 424] in this work. An IC50 of 860 nM was found for CCCN(C(=O)c1ccccc1OC)C1CC2(C1)CN(S(=O)(=O)c1cccc(C)c1)C2 [Example 425] in this work. An IC50 of 95 nM was found for CCCN(C(=O)c1ccnc2[nH]cnc12)C1CC2(C1)CN(S(=O)(=O)c1cc(C)ccc1F)C2 [Example 426] in this work. An IC50 of 52 nM was found for CCCN(C(=O)c1cccnc1N(C)C)C1CC2(C1)CN(S(=O)(=O)c1cc(C)ccc1F)C2 [Example 427] in this work. An IC50 of 14 nM was found for CCCN(C(=O)c1ccnc2[nH]ccc12)C1CC2(C1)CN(S(=O)(=O)c1cc(C)ccc1F)C2 [Example 428] in this work. An IC50 of 14 nM was found for CCCN(C(=O)c1cccnc1NC1CC1)C1CC2(C1)CN(S(=O)(=O)c1cc(C)ccc1F)C2 [Example 429] in this work. An IC50 of 48 nM was found for CCCN(C(=O)c1cccc2[nH]c(C)nc12)C1CC2(C1)CN(S(=O)(=O)c1cc(C)ccc1F)C2 [Example 430] in this work. An IC50 of 347 nM was found for CCCN(C(=O)c1nc2ccccc2[nH]1)C1CC2(C1)CN(S(=O)(=O)c1cc(C)ccc1F)C2 [Example 431] in this work. An IC50 of 344 nM was found for CC1CCCNC(=O)N1C1CC2(C1)CN(S(=O)(=O)c1ccccc1F)C2 (stereo not drawn) [Example 432, 1-[2-(2-fluorophenyl)sulfonyl-2-azaspiro[3.3]heptan-6-yl]-7-methyl-1,3-diazepan-2-one] in this work. An IC50 of 868 nM was found for CC1CCOC(=O)N1C1CC2(C1)CN(S(=O)(=O)c1ccccc1F)C2 (stereo not drawn) [Example 433, 3-[2-(2-fluorophenyl)sulfonyl-2-azaspiro[3.3]heptan-6-yl]-4-methyl-1,3-oxazinan-2-one] in this work. An IC50 of 279 nM was found for CC1CCNC(=O)N1C1CC2(C1)CN(S(=O)(=O)c1ccccc1F)C2 (stereo not drawn) [Example 434, 1-[2-(2-fluorophenyl)sulfonyl-2-azaspiro[3.3]heptan-6-yl]-6-methyl-1,3-diazinan-2-one] in this work.
